From PubChem BioAssay AID624446 (The Scripps Research Institute Molecular Screening Center, 2012)
The source made the active and inactive calls.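 How the source made its calls: active means compounds blocking protein phosphatase 1 with half-maximal inhibitory concentration IC50 under 50 µM; inactive means IC50 of 50 µM or more.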

Biological target: Serine/threonine-protein phosphatase PP1-alpha catalytic subunit (Homo sapiens) (UniProt P62136)
Test: PP1alpha inhibitor potency, phosphohistone substrate, late-stage follow-up, selectivity assay for PP5 inhibitor project, biochemical, 32P-phosphohistone, radiolabel, dose response, round 5 (AID 624446)
Settings: purified PP1alpha, 32P-phosphohistone dephosphorylation, scintillation

Serine/threonine-protein phosphatase PP1-alpha catalytic subunit (Homo sapiens), sequence (P62136 whole entry, looked up): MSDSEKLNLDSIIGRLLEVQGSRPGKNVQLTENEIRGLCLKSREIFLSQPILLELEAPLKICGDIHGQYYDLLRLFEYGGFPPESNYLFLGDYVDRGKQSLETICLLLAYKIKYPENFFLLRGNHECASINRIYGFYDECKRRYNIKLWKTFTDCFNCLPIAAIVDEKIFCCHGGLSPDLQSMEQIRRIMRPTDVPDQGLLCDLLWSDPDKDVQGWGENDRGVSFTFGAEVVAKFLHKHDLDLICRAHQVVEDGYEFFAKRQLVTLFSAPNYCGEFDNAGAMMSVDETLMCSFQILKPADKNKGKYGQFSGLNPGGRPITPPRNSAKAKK

- IC50: inactive
SMILES: CC(C)Oc1ccccc1-c1n[nH]nc1C(=O)O
